Measured values taken from paper PMC7203153, “Rational identification and characterisation of peptide ligands for targeting polysialic acid” (Scientific Reports, 2020).
pKd: −log10 of the molar value. Where a SMILES comes first, the peptide text is derived from it.

Test: Fluorescence anisotropy (FA) assay of peptide–PSA binding
Set-up: species or system Escherichia coli
Experimental: Peptides (Table 2) were synthesized at >95% purity (confirmed with HPLC) by Biomatik (see Supplementary Information). All peptides were N-terminally acetylated and C-terminally labelled with tetramethylrhodamine dye (TAMRA). TAMRA was chosen as a label due to its pH insensitivity compared to FAM (fluorescein) and related dyes commonly used for fluorescence assays. Experiments were conducted in black 384-well plates with non-binding surface (NBS, Corning, Inc.) to minimize background binding and enhance signal-to-noise ratio in the fluorescence-based binding assay. Titrations were carried out through addition of TAMRA-labelled peptide (8 μL, final concentration 20 nM) to CA (72 μL, final concentrations 0–1500 μM) in PBS, pH 7.4 (10 mM phosphate, 100 mM NaCl), and solutions were incubated with agitation to equilibrium at room temperature (3 h, ~20 °C). Parallel and perpendicular intensities were subsequently measured at 530 nm excitation (band width 5 nm) and 580 nm emission (band width 20 nm) in fluorescence polarization mode with a Tecan Infinite M1000 Pro plate reader. Total fluorescence intensities were also measured as a control for fluorophore properties with target binding; fluorescence intensities of free peptide were determined to be approximately equivalent to intensities with peptide–CA mixtures. At higher concentrations of free CA (control with no peptide addition), attenuation of detected light differed in parallel and perpendicular planes, so respective intensities were subtracted from peptide–CA intensities prior to anisotropy calculations. […] Unique samples were screened in at least triplicate within each titration experiment, and each peptide titration was carried out at least twice. In experimental repeats, peptide locations on plates were varied to prevent location-specific effects, if any, and different combinations of peptides were assessed at once. Anisotropies were calculated from corrected parallel and perpendicular intensities, and values were fit to the four-parameter logistic binding model[70] in MATLAB. Prior to curve fitting, anisotropy values for each peptide were transformed through subtraction of minimum values to enhance comparison between peptides. The resulting translations in binding curves were identical, within error, to change in anisotropy curves obtained through subtraction of anisotropy of free labelled peptide. Bmax and KD values obtained were used in the calculation of Bmax/KD ratios for comparison to microarray intensity values, and the Pearson correlation coefficient (r) was determined.

## CC(=O)N[C@@H](Cc1ccccc1)C(=O)N[C@@H](CCCCN)C(=O)NCC(=O)N[C@@H](CCCNC(=N)N)C(=O)N[C@H](C(=O)N[C@@H](CO)C(=O)N1CCC[C@H]1C(=O)N[C@@H](CCCCN)C(=O)N[C@H](C(=O)NCC(=O)N[C@@H](C)C(=O)N1CCC[C@H]1C(=O)N[C@H](C(=O)N[C@@H](C)C(=O)N[C@H](C(N)=O)[C@@H](C)O)C(C)C)[C@@H](C)O)[C@@H](C)O [I-P24] (Ac-FKGRTSPKTGAPVAT-NH2)
500 µM PSA (CA), Neu5Ac 0–150 mM, PBS pH 7.4
  binding to PSA in competitive FA assay with Neu5Ac: largely maintained
FA titration, N-acetylated, C-terminally TAMRA-labelled peptide 20 nM, CA 0–1500 μM, PBS pH 7.4 (10 mM phosphate, 100 mM NaCl), 3 h, ~20 °C, four-parameter logistic fit, at least two independent experiments, at least triplicate, * = accuracy likely poor (SE > KD)
  pKd: 3.28
From FA curve fits, among the peptides characterised with FA
  Bmax/KD ratio (binding potential): highest
